Some test systems named below: IGROV1 ovarian; ACHN renal; HOP-62 NSCLC; HCT-116 colon; NCI-H522 lung; CAKI-1 renal; HS 578T breast; SK-OV-3 ovarian; MCF7 breast; A498 renal.
Common to all, as to assay: growth of human tumour cells (NCI), 48 h

The structures appear in SMILES notation. Where “and” joins values, the source holds several entries; their conditions need not be identical. Identical values can stand only once.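 96-well plates; 48 h exposure; 5 concentrations. Endpoints by linear interpolation between flanking doses. Not reached: highest tested concentration assigned. GI50 is the concentration that inhibits growth by half. TGI: total growth inhibition.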

As to `COc1ccc(C2SCC(=O)N2NC(=O)Nc2c(C)nc3ccccn23)cc1` (configuration not stated), the GI50 in the test on IGROV1 ovarian is 38.6 µM; in the test on ACHN renal, 21.9 µM; in the test with HOP-62 NSCLC it was 16.4 µM; in the test on HCT-116 colon it was 17.1 µM; in the test with NCI-H522 lung it was 32.8 µM; in the test with CAKI-1 renal it was > 100 µM. Moreover, the GI50 in the test with HS 578T breast was 41.3 µM; in the test on SK-OV-3 ovarian, 24.5 µM; with MCF7 breast, 75.7 µM; in the test with A498 renal, 27.8 µM. Also, the TGI was > 100 µM with IGROV1 ovarian; 47.3 µM in the test on ACHN renal; 31.1 µM in the test with HOP-62 NSCLC; 42.8 µM with HCT-116 colon; 95.4 µM in the test with NCI-H522 lung; > 100 µM in the test with CAKI-1 renal. Further, the TGI is > 100 µM in the test with HS 578T breast, 47.6 µM with SK-OV-3 ovarian, > 100 µM in the test on MCF7 breast and 60.3 µM in the test with A498 renal.
Turning to `CON(C)C(=O)N1N=C(c2cc(F)ccc2F)SC1(CCCN)c1ccccc1` (configuration not stated), the GI50 in the test on IGROV1 ovarian is 6.28 µM and 4.85 µM; in the test with ACHN renal, 7.79 µM and 4.91 µM; in the test with HOP-62 NSCLC it was 0.0545 µM and < 0.01 µM; with HCT-116 colon it was < 0.01 µM; in the test with NCI-H522 lung, 0.0201 µM and < 0.01 µM; in the test with CAKI-1 renal it was 0.238 µM. For the same compound, the GI50 in the test on HS 578T breast is 0.0555 µM and < 0.01 µM; in the test on SK-OV-3 ovarian, < 0.01 µM; in the test with MCF7 breast, < 0.01 µM; with A498 renal it was 0.0452 µM and < 0.01 µM. The TGI is 32.2 µM and 27.5 µM in the test with IGROV1 ovarian; 22.5 µM and 21.8 µM in the test with ACHN renal; 18.4 µM and 15.7 µM with HOP-62 NSCLC; 16.1 µM and 15.2 µM in the test with HCT-116 colon; 10.7 µM and 5.31 µM with NCI-H522 lung; 17.3 µM and 18.1 µM in the test with CAKI-1 renal. Further, the TGI was 17.4 µM and 21.8 µM with HS 578T breast; 12.6 µM and 12.8 µM in the test on SK-OV-3 ovarian; 11.6 µM and 11.5 µM in the test with MCF7 breast; 13.5 µM and 13.4 µM in the test on A498 renal.
For `CO[C@H]1C=C[C@@]23c4cc5c(cc4CO[C@]2(O)CN(C)[C@H]3C1)OCO5`, the TGI in the test on IGROV1 ovarian, in the test on ACHN renal, in the test on HCT-116 colon, in the test with NCI-H522 lung, in the test with CAKI-1 renal and in the test with HS 578T breast was > 100 µM in each case. The TGI in the test on SK-OV-3 ovarian, in the test with MCF7 breast and in the test on A498 renal was > 100 µM throughout.
As for `CC[CH2][Sn]([Cl])([Cl])[CH2]CC.Oc1ccccc1C=NCCN=Cc1ccccc1O`, the GI50 in the test with IGROV1 ovarian is 5.98 µM; in the test with ACHN renal, 10.1 µM; with HOP-62 NSCLC, 12.3 µM; in the test on HCT-116 colon it was 4.89 µM; in the test with CAKI-1 renal, 2.46 µM; in the test with HS 578T breast it was 2.33 µM. In addition, the GI50 in the test with SK-OV-3 ovarian was 17.2 µM; in the test on MCF7 breast it was 3.12 µM; in the test with A498 renal it was 2.22 µM. Further, the TGI in the test on IGROV1 ovarian was 27 µM; in the test on ACHN renal it was 21.8 µM; in the test with HOP-62 NSCLC, 25.4 µM; in the test on HCT-116 colon, 16.3 µM; in the test on CAKI-1 renal it was 12.7 µM; in the test on HS 578T breast, 9.09 µM. For the same compound, the results for the TGI in the test on SK-OV-3 ovarian, in the test with MCF7 breast and in the test on A498 renal were 35.1 µM, 15.8 µM and 6.03 µM, respectively.
As for `CCc1oc2ccccc2c1C(=O)c1cc(I)c(O)c(I)c1`, the GI50 is 4.87 µM in the test on ACHN renal; 5.85 µM in the test with HOP-62 NSCLC; 2.91 µM in the test on HCT-116 colon; 1.84 µM in the test with NCI-H522 lung; 2.3 µM with CAKI-1 renal; 2.22 µM in the test on HS 578T breast. Also, the GI50 in the test with SK-OV-3 ovarian is 5.46 µM; with MCF7 breast, 4.02 µM; with A498 renal, 3.84 µM. Also, the TGI with ACHN renal was 18.2 µM; with HOP-62 NSCLC, 20.3 µM; with HCT-116 colon, 12 µM; with NCI-H522 lung it was 12.9 µM; in the test with CAKI-1 renal, 10.8 µM; in the test with HS 578T breast it was 7.41 µM. The TGI in the test on SK-OV-3 ovarian amounted to 18.4 µM; with MCF7 breast it was 14.7 µM; with A498 renal, 17 µM.
For the compound `COC(=O)c1c(C)[nH]c(/C=C2\N=C(c3ccc[nH]3)C=C2OC)c1C`, the GI50 is 0.147 µM with IGROV1 ovarian; 0.189 µM with ACHN renal; 0.769 µM in the test with HOP-62 NSCLC; 0.0378 µM in the test on HCT-116 colon; 0.367 µM with NCI-H522 lung; 0.693 µM with HS 578T breast. In addition, the GI50 in the test on SK-OV-3 ovarian was 2.69 µM; in the test on MCF7 breast, 0.413 µM; in the test on A498 renal it was 2.64 µM. In addition, the TGI in the test on IGROV1 ovarian is 1.62 µM; in the test with ACHN renal, 1.43 µM; in the test on HCT-116 colon, 1.2 µM; with NCI-H522 lung it was 2.44 µM; in the test on SK-OV-3 ovarian, > 100 µM; with MCF7 breast, 3.12 µM. The TGI in the test on A498 renal is 10.7 µM.
As to `COc1ccc(-c2nnc(COc3ccc(NC(=O)Nc4ccc(Cl)c(C(F)(F)F)c4)cc3F)o2)cc1`, the GI50 in the test with IGROV1 ovarian is 4.77 µM; with ACHN renal, 2.55 µM; in the test on HOP-62 NSCLC, 5.07 µM; in the test with HCT-116 colon, 2.49 µM; with CAKI-1 renal it was 4.07 µM; in the test with HS 578T breast it was 3.26 µM. Also, the GI50 with SK-OV-3 ovarian was 5.86 µM; in the test on MCF7 breast, 3.03 µM; in the test with A498 renal, 3.19 µM. In addition, the TGI in the test with IGROV1 ovarian was found to be 26.4 µM; in the test with ACHN renal it was 10.7 µM; in the test with HOP-62 NSCLC it was 21.8 µM; in the test on HCT-116 colon it was 11.7 µM; with CAKI-1 renal, 29.2 µM; in the test on HS 578T breast, 18.1 µM. In addition, the figures for the TGI in the test with SK-OV-3 ovarian, in the test on MCF7 breast and in the test on A498 renal were 31.5 µM, 14.3 µM and 20 µM, respectively.
Turning to `COC(=O)C12C3C4C1C1C2C3C41NC(=O)c1csc([C@@H](C[C@H](C(C)C)N(C)C(=O)[C@@H](NC(=O)[C@H]2CCCCN2C)C2CC2)OC(C)=O)n1` (some centres not stated), the GI50 in the test on IGROV1 ovarian was 0.0226 µM; with ACHN renal, 0.0903 µM; with HOP-62 NSCLC, 0.048 µM; in the test on HCT-116 colon, 0.0123 µM; in the test with NCI-H522 lung it was 0.00401 µM; with HS 578T breast, 0.00773 µM. Besides, the GI50 in the test on SK-OV-3 ovarian was 0.148 µM; with MCF7 breast it was 0.00606 µM; with A498 renal, 0.116 µM. Besides, the TGI in the test with IGROV1 ovarian is > 33.3 µM; in the test on ACHN renal, > 33.3 µM; with HOP-62 NSCLC, > 33.3 µM; in the test on HCT-116 colon, > 33.3 µM; with NCI-H522 lung, 1.27 µM; in the test with HS 578T breast, > 33.3 µM. Besides, the values for the TGI in the test with SK-OV-3 ovarian, in the test with MCF7 breast and with A498 renal were > 33.3 µM, > 33.3 µM and > 10.6 µM, respectively.

(Values after PubChem BioAssay (NCI).)
